Measurements published in ChEMBL document CHEMBL1138824, “Design and synthesis of hydroxyethylene-based peptidomimetic inhibitors of human beta-secretase” (J Med Chem, 2004).
Residues, ends and D or L forms follow the SMILES beside them.

Columns and labels:
Beta-secretase (BACE) = Beta-secretase (BACE) (Homo sapiens, UniProt Q9Y5Z0+P56817); assay: Inhibition of human beta secretase in MBP-C125 assay.; assay type: protein assay
HEK293 = assay: Effective concentration evaluated in HEK293 cells; assay type: functional, cell-based; conditions: Homo sapiens

Compound: CCCN(CCC)C(=O)c1cccc(C(=O)N[C@@H](Cc2cc(F)cc(F)c2)[C@@H](O)C[C@@H](CC)C(=O)NCCCCC(=O)O)c1
- IC50 (Beta-secretase (BACE)): 400 nM

Compound: CC(C)C[C@H](NC(=O)C(O)c1cccc2ccccc12)[C@@H](O)C[C@H](C(=O)N[C@@H](C)C(=O)N[C@@H](CCC(=O)O)C(=O)N[C@@H](Cc1ccccc1)C(=O)O)C(C)C (some centres undefined)
- IC50 (Beta-secretase (BACE)): 7500 nM

Compound: CCCN(CCC)C(=O)c1cccc(C(=O)N[C@@H](Cc2cc(F)cc(F)c2)[C@@H](O)C[C@@H](CC)C(=O)NCCCC(=O)O)c1
- IC50 (Beta-secretase (BACE)): 310 nM

Compound: CSCC[C@H](NC(=O)[C@@H](NC(=O)OC(C)(C)C)C(C)C)C(=O)N[C@@H](CC(C)C)[C@@H](O)C[C@@H](C)C(=O)N[C@H](C(=O)NCc1ccccc1)C(C)C
- IC50 (Beta-secretase (BACE)): 3 nM

Compound: CCCN(CCC)C(=O)c1cccc(C(=O)N[C@@H](Cc2cc(F)cc(F)c2)[C@@H](O)C[C@@H](CC)C(=O)N[C@H]2C[C@@H](OC)C[C@@H](OC)C2)c1
- IC50 (Beta-secretase (BACE)): 6600 nM

Compound: CCCN(CCC)C(=O)c1cccc(C(=O)N[C@@H](Cc2cc(F)cc(F)c2)[C@@H](O)C[C@@H](CC(C)C)C(=O)NC[C@H]2CC[C@H](C(=O)O)CC2)c1
- IC50 (Beta-secretase (BACE)): 310 nM

Compound: CCCN(CCC)C(=O)c1cccc(C(=O)N[C@@H](Cc2cc(F)cc(F)c2)[C@@H](O)C[C@@H](CC)C(=O)NCCCCCC(=O)O)c1
- IC50 (Beta-secretase (BACE)): 240 nM

Compound: CCCN(CCC)C(=O)c1cccc(C(=O)N[C@@H](Cc2cc(F)cc(F)c2)[C@@H](O)C[C@@H](CC)C(=O)NCCC(=O)O)c1
- IC50 (Beta-secretase (BACE)): 2800 nM

Compound: CCCN(CCC)C(=O)c1cccc(C(=O)N[C@@H](Cc2cc(F)cc(F)c2)[C@@H](O)C[C@@H](Cc2ccccc2)C(=O)NC[C@H]2CC[C@H](C(=O)O)CC2)c1
- IC50 (Beta-secretase (BACE)): 27000 nM

Compound: CC(C)[C@H](NC(=O)C[C@H](O)[C@H](Cc1cc(F)cc(F)c1)NC(=O)C(O)c1ccccc1-c1ccccc1)C(=O)N[C@H]1C[C@@H](C(=O)O)C[C@@H](C(=O)O)C1 (some centres undefined)
- IC50 (Beta-secretase (BACE)): 20 nM
- EC50 (HEK293): > 10000 nM

Compound: CCCN(CCC)C(=O)c1cccc(C(=O)N[C@@H](Cc2cc(F)cc(F)c2)[C@@H](O)CCC(=O)NC[C@H]2CC[C@H](C(=O)O)CC2)c1
- IC50 (Beta-secretase (BACE)): 400 nM

Compound: CCCN(CCC)C(=O)c1cccc(C(=O)N[C@@H](Cc2cc(F)cc(F)c2)[C@@H](O)C[C@@H](CC)C(=O)NCCCCCCCC(=O)OC)c1
- IC50 (Beta-secretase (BACE)): 410 nM

Compound: CCCN(CCC)C(=O)c1cccc(C(=O)N[C@@H](Cc2cc(F)cc(F)c2)[C@@H](O)C[C@@H](CC)C(=O)NC[C@H]2CC[C@H](C(=O)O)CC2)c1
- IC50 (Beta-secretase (BACE)): 50 nM

Compound: CCCN(CCC)C(=O)c1cccc(C(=O)N[C@@H](Cc2cc(F)cc(F)c2)[C@@H](O)C[C@@H](C)C(=O)NCC(C)C)c1
- IC50 (Beta-secretase (BACE)): 30 nM
- EC50 (HEK293): 3000 nM

Compound: CCCN(CCC)C(=O)c1cccc(C(=O)N[C@@H](Cc2cc(F)cc(F)c2)[C@@H](O)C[C@@H](CC)C(=O)NCc2ccccc2)c1
- IC50 (Beta-secretase (BACE)): 1400 nM

Compound: CCCN(CCC)C(=O)c1cccc(C(=O)N[C@@H](Cc2cc(F)cc(F)c2)[C@@H](O)CC(=O)N[C@H](C(=O)N[C@H]2C[C@@H](C(=O)O)C[C@@H](C(=O)O)C2)C(C)C)c1
- IC50 (Beta-secretase (BACE)): 1 nM
- EC50 (HEK293): 1000 nM

Compound: CCC[C@H](C[C@H](O)[C@H](Cc1cc(F)cc(F)c1)NC(=O)c1cccc(C(=O)N(CCC)CCC)c1)C(=O)NC[C@H]1CC[C@H](C(=O)O)CC1
- IC50 (Beta-secretase (BACE)): 45 nM

Compound: CCCN(CCC)C(=O)c1cccc(C(=O)N[C@@H](Cc2cc(F)cc(F)c2)[C@@H](O)C[C@@H](C)C(=O)NC[C@H]2CC[C@H](C(=O)O)CC2)c1
- IC50 (Beta-secretase (BACE)): 26 nM

Compound: CCCN(CCC)C(=O)c1cccc(C(=O)N[C@@H](Cc2cc(F)cc(F)c2)[C@@H](O)C[C@@H](CC)C(=O)NCCCCCCCC(=O)O)c1
- IC50 (Beta-secretase (BACE)): 200 nM

Compound: CC(C)C[C@H](NC(=O)C(O)c1cccc2ccccc12)[C@@H](O)CC(=O)N[C@H](C(=O)N[C@@H](C)C(=O)N[C@@H](CCC(=O)O)C(=O)N[C@@H](Cc1ccccc1)C(=O)O)C(C)C (some centres undefined) (HELM PEPTIDE1{[O=C(C(O)c1cccc2ccccc12)[*:2]].[CC(C)C[C@H](N[*:1])[C@@H](O)CC(=O)[*:2]].V.A.E.F}$$$$V2.0)
- IC50 (Beta-secretase (BACE)): 4000 nM

Compound: CSCC[C@H](NC(=O)[C@@H](NC(C)=O)C(C)C)C(=O)N[C@@H](CC(C)C)[C@@H](O)C[C@H](C(=O)N[C@@H](C)C(=O)N[C@@H](CCC(=O)O)C(=O)N[C@@H](Cc1ccccc1)C(=O)O)C(C)C (HELM PEPTIDE1{[ac].V.M.[CC(C)C[C@H](N[*:1])[C@@H](O)C[C@H](C(=O)[*:2])C(C)C].A.E.F}$$$$V2.0)
- IC50 (Beta-secretase (BACE)): 30 nM
